In one series the target is EGFP-IKZF (UniProt P42212+Q8C7D2, F64L/H231L/INS1V/S65T). Format: cell-based, mouse. As to conditions: for Bottom, EGFP-IKZF / LogDC50, EGFP-IKZF / DC50: stable; for DC50: read-out: DC50, EGFP-IKZF.
A further series concerns the target EGFP-SD (Aequorea victoria, UniProt P42212, F64L/H231L/S65T). In kind it is cell-based, mouse. As to conditions: stable; for DC50: read-out: DC50, EGFP-SD.
A further series deals with EGFP-ZFP91 (UniProt P42212+Q8C7D2, F64L/H231L/INS1V/S65T). In kind it is cell-based, mouse. The following applies: CrbnI391V/I391V mESCs; for Bottom, EGFP-ZFP91 / LogDC50, EGFP-ZFP91 / DC50: stable, Figure 5E; for DC50: read-out: DC50, EGFP-ZFP91.
Series [1] relates to degradation of SD-tagged EGFP. Briefly: Inhibition of IBR-induced degradation of SD-EGFP or EGFP-SD in B6J-S1 by pathway inhibitors. Format: cell-based, mouse. The following applies: B6J-S1, IBR fixed at 1 μM, 24 h.
The conditions of series [2]: in vivo; cited from earlier work.
Where [3] appears, read: CrbnI391V/I391V mESCs, Figure 5E.

Read-outs that look alike come from different tables or passages of the source. Residues, ends and D or L forms follow the SMILES beside them. *: point of attachment. Cbz = O=C(OCc1ccccc1)*

For the compound `Cc1nc2cccc(N)c2c(=O)n1C1CCC(=O)NC1=O` (centres unmarked) [AVA, avadomide], on EGFP-IKZF (B6J-S1 mESCs, Figure 5D), the “Bottom, EGFP-IKZF” value was 0.07112; the “LogDC50, EGFP-IKZF” value was -0.9014 μM; the DC50 stood at 126 nM. Further, on EGFP-IKZF (setting [3]), the “Bottom, EGFP-IKZF” value came to 0.1373; the “LogDC50, EGFP-IKZF” value is on record as -1.87 μM; the DC50 is 13.5 nM. Moreover, the “EGFP-IKZF amount compared to other reagents” value at EGFP-IKZF (mESCs, 0.1 and 1 μM) is “significantly reduced”. In addition, at EGFP-SD (B6J-S1 mESCs, Figure 5D), the “Bottom, EGFP-SD” value came to 0.01996; the “LogDC50, EGFP-SD” value is on record as -2.1 μM; the DC50 amounted to 7.94 nM. Further, at EGFP-SD (setting [3]), the “Bottom, EGFP-SD” value worked out at 0.06758; the “LogDC50, EGFP-SD” value is -2.187 μM; the DC50 was 6.5 nM. Moreover, on EGFP-ZFP91, the “Bottom, EGFP-ZFP91” value was determined as 0.1629; the “LogDC50, EGFP-ZFP91” value is -1.296 μM; the DC50 was found to be 50.5 nM.
As to `CC(C)C[C@@H](C=O)NC(=O)[C@H](CC(C)C)NC(=O)[C@H](CC(C)C)NC(=O)OCc1ccccc1` [MG-132] (Cbz-Leu-Leu-Leu-aldehyde), the “effect on IBR-induced EGFP degradation” value in series [1] was “inhibited in a concentration-dependent manner”.
For `NS(=O)(=O)OC[C@@H]1C[C@@H](n2ccc3c(N[C@H]4CCc5ccccc54)ncnc32)C[C@@H]1O` [MNL4924, pevonedistat], the “effect on IBR-induced EGFP degradation” value in series [1] was “inhibited in a concentration-dependent manner”.
On to `N#Cc1ccc(N2CCN(Cc3ccc(COc4cccc5c4CN([C@H]4CCC(=O)NC4=O)C5=O)cc3)CC2)c(F)c1` [MZG, mezigdomide], for which, at EGFP-IKZF (B6J-S1 mESCs, Figure 5D), the “Bottom, EGFP-IKZF” value came to 0.385; the “LogDC50, EGFP-IKZF” value is -1.952 μM; the DC50 amounted to 11.2 nM. In addition, at EGFP-IKZF (setting [3]), the “Bottom, EGFP-IKZF” value amounted to 0.1226; the “LogDC50, EGFP-IKZF” value was -3.265 μM; the DC50 was 0.543 nM. In addition, on EGFP-SD (B6J-S1 mESCs, Figure 5D), the “Bottom, EGFP-SD” value is on record as 0.0126; the “LogDC50, EGFP-SD” value was -3.875 μM; the DC50 amounted to 0.133 nM. Also, on EGFP-SD (setting [3]), the “Bottom, EGFP-SD” value amounted to 0.0164; the “LogDC50, EGFP-SD” value is recorded as -4.187 μM; the DC50 was 0.0651 nM. In addition, on EGFP-ZFP91, the “degradation of EGFP-ZFP91” value is listed as “efficiently degraded”; the “Bottom, EGFP-ZFP91” value is reported as 0.03183; the “LogDC50, EGFP-ZFP91” value is reported as -3.343 μM; the DC50 was determined as 0.454 nM.
For `CCOC(=O)c1ccc(N2NC(=O)/C(=C/c3ccc([N+](=O)[O-])o3)C2=O)cc1` [PYR-41], the “effect on IBR-induced EGFP degradation” value in series [1] is recorded as “did not affect the degradation of EGFP”.
The same measure, in the same setting: as for `NS(=O)(=O)OC[C@H]1C[C@@H](Nc2ccnc3cc(-c4cccc(SC(F)(F)F)c4)nn23)[C@H](O)[C@@H]1O` [TAK-243], the entry is “inhibited in a concentration-dependent manner”; as for `CCN(CC)CCCC(C)Nc1ccnc2cc(Cl)ccc12` (centres unmarked) [chloroquine], “but not by chloroquine”.
As for `CC[C@H](C(=O)N1CCCC[C@H]1C(=O)O[C@H](CCc1ccc(OC)c(OC)c1)c1ccccc1OCC(=O)NCCCCCCOc1cccc2c1C(=O)N(C1CCC(=O)NC1=O)C2=O)c1cc(OC)c(OC)c(OC)c1` (some centres unmarked) [dTAG-13], the “blood-brain barrier (BBB) passage” value in series [2] is on record as “cannot cross the blood-brain barrier”.

The record behind these values is publication PMC12274739, “Differential substrate degradation by super-degron: EGFP in wild-type mouse cells, PD-1 requires CRBN humanization” (iScience, 2025).
